From patent US6756381B2 (SuperGen, Inc., priority 2002, dated 2004)

Key:
[1] = tested on: human tumor xenografts; settings: nude mice; cited from earlier work
[2] = Dehydration/desolvation under vacuum, XRPD compared; type: physicochemical
Method: Dehydration/desolvation studies were conducted by placing a sample under continuous vacuum at room temperature for 14 days. An XRPD pattern was obtained on the remaining solid and compared to the starting material.

[3] = cited from earlier work
[4] = Moisture sorption/desorption (VTI SGA-100 moisture balance); type: physicochemical; settings: for hygroscopicity (in words): 5 to 95% RH; for Weight % chg: 25 deg C
Text: The samples were not dried prior to analysis.

[5] = Storage of Form B in a closed vial, XRPD pattern compared; type: physicochemical; settings: 31 days, ambient conditions
Method: X-ray powder diffraction analyses were carried out on a Shimadzu XRD-6000 X-ray powder diffractometer using Cu Kα radiation having a wavelength of 1.5406 Å. The instrument is equipped with a fine-focus X-ray tube. The tube power was set by setting potential difference at 40 kV, and current 40 mA. The divergence and scattering slits were set at 1° and the receiving slit was set at 0.15 mm. Diffracted radiation was detected by a NaI scintillation detector. A theta-two theta continuous scan at 3°/min (0.4 sec/0.02° step) from 2.5 to 40 °2 θ was performed. A silicon standard was analyzed each day to check the instrument alignment. Each sample was analyzed in a quartz sample holder. A variable temperature (VT-XRPD) experiment was performed on one form. The sample was prepared for analysis by pressing it into a variable temperature holder. A powder pattern was collected initially at 35° C. and again, after heating, at 200° C.

[6] = start, elapsed time 0.0 min, sample not dried

CC[C@@]1(O)C(=O)OCc2c1cc1n(c2=O)Cc2cc3c([N+](=O)[O-])cccc3nc2-1 [9-nitrocamptothecin, 9-nitro-20(S)-camptothecin]
regression of human tumors established as xenografts [1]: induced regression

CC[C@@]1(O)C(=O)OCc2c1cc1n(c2=O)Cc2cc3c([N+](=O)[O-])cccc3nc2-1 [Form C, 9-nitrocamptothecin]
result of attempt to desolvate under vacuum [2]: becomes amorphous

CC[C@@](O)(C(=O)[O-])c1cc2n(c(=O)c1CO)Cc1cc3ccccc3nc1-2.[Na+] [Sodium camptothecin]
unpredictable side effects ([3]; administered intravenously): myelosuppression and hemorrhagic cystitis | activity in clinical trials ([3]; solubilized by sodium hydroxide in water, intravenous): antineoplastic activity

CC[C@@]1(O)C(=O)OCc2c1cc1n(c2=O)Cc2cc3c([N+](=O)[O-])cccc3nc2-1 [Form B, 9-nitrocamptothecin]
hygroscopicity (in words) [4]: relatively hygroscopic | Weight % chg [4, 6]: 0.0000% | stability of the crystalline polymorph on storage (XRPD pattern unchanged) [5]: relatively stable

CC[C@@]1(O)C(=O)OCc2c1cc1n(c2=O)Cc2cc3c([N+](=O)[O-])cccc3nc2-1 [Form A, 9-nitrocamptothecin]
hygroscopicity (in words) [4]: not hygroscopic | Weight % chg ([4]; sorption, about 35% RH): 0.0210% | Weight % chg [4, 6]: 0.0000%
